# Data: patent US20240390369A1, “METHODS FOR DETERMINING RESPONSIVENESS TO TYK2 INHIBITORS” (Bristol-Myers Squibb Company, priority 2021, published 2024)
# Tests used:
# [1] = system: β-defensin 2 (BD2); test: Serum β-defensin 2 level over sixteen weeks of treatment (ELISA); format: in vivo, human; settings: 12 mg QD treatment arm; sixteen-week treatment period (FIG. 43B)
# Method: Levels of proteins in serum were measured at baseline and at various points during sixteen weeks of treatment with deucravacitinib. […] Levels of BD2 in serum samples were measured by ELISA; levels of IL-19 and IL-17A in serum were each measured by ultrasensitive Simoa technology.
# [2] = system: patients with psoriatic arthritis; test: Phase 2 trial in psoriatic arthritis: ACR20 response at week 16; format: in vivo, human
compound,measurement,setting,value
"[2H]C([2H])([2H])NC(=O)c1nnc(NC(=O)C2CC2)cc1Nc1cccc(-c2ncn(C)n2)c1OC [deucravacitinib, 6-(cyclopropanecarboxamido)-4-((2-methoxy-3-(1-methyl-1H-1,2,4-triazol-3-yl)phenyl)amino)-N-(methyl-d3)pyridazine-3-carboxamide]","Change from baseline in serum BD2 level, PASI75 responders versus non-responders",[1],greater reductions in BD2 serum level were observed over time in the PASI75 responder group compared with the non-responder group
same,Interaction Term for ACR20 response (ratio of odds ratios),"[2]; adjusted for baseline DAS28, 12 mg QD vs placebo: IL-19-high versus IL-19-low",7.37
same,Odds Ratio for ACR20 response,"[2]; adjusted for baseline DAS28, All patients, 6 mg QD vs placebo",2.44
same,Odds Ratio for ACR20 response,"[2]; adjusted for baseline DAS28, BD2-high, 12 mg QD vs placebo",7.33
same,Odds Ratio for ACR20 response,"[2]; adjusted for baseline DAS28, IL-17A-low, 12 mg QD vs placebo",2.16
